These compounds were tested on B. longum AH1205 (assay: Antibiotic sensitivity, minimum inhibitory concentration (MIC)). Conditions: against B. longum AH1205.
Format: cell-based, Bifidobacterium longum

SMILES	minimum inhibitory concentration (MIC)
CCC[C@@H]1C[C@@H](C(=O)N[C@@H]([C@H]2O[C@H](SC)[C@H](O)[C@@H](O)[C@H]2O)[C@H](C)Cl)N(C)C1 [clindamycin]	0.032
Cc1ncc([N+](=O)[O-])n1CCO [metronidazole]	> 256
CN[C@H](CC(C)C)C(=O)N[C@H]1C(=O)N[C@@H](CC(N)=O)C(=O)N[C@H]2C(=O)N[C@H]3C(=O)N[C@H](C(=O)N[C@H](C(=O)O)c4cc(O)cc(O)c4-c4cc3ccc4O)[C@H](O)c3ccc(c(Cl)c3)Oc3cc2cc(c3O[C@@H]2O[C@H](CO)[C@@H](O)[C@H](O)[C@H]2O[C@H]2C[C@](C)(N)[C@H](O)[C@H](C)O2)Oc2ccc(cc2Cl)[C@H]1O [vancomycin]	0.75

Source: patent publication US8709398B2, “Probiotic Bifidobacterium strains” (Alimentary Health Limited, priority 2007, dated 2014)
